Assay results published in PubChem BioAssay (NCI).
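GI50 marks 50% less growth. The concentration for full growth arrest is given as TGI.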

Key:
Test in all cases: DTP human tumour cell line panel, 384-well format; in the data active = GI50 below about 0.43 µM; inactive = the rest
[1] = test system: 786-0 renal
[2] = test system: A498 renal
[3] = test system: A549 NSCLC
[4] = test system: ACHN renal
[5] = test system: BT-549 breast
[6] = test system: CAKI-1 renal
[7] = test system: CCRF-CEM leukemia
[8] = test system: COLO 205 colon
[9] = test system: DU-145 prostate
[10] = test system: EKVX NSCLC
[11] = test system: HCC-2998 colon
[12] = test system: HCT-116 colon
[13] = test system: HCT-15 colon
[14] = test system: HL-60(TB) leukemia
[15] = test system: HOP-62 NSCLC
[16] = test system: HOP-92 NSCLC
[17] = test system: HS 578T breast
[18] = test system: HT29 colon
[19] = test system: IGROV1 ovarian
[20] = test system: KM12 colon
[21] = test system: LOX IMVI melanoma
[22] = test system: M14 melanoma
[23] = test system: MALME-3M melanoma
[24] = test system: MCF7 breast
[25] = test system: MDA-MB-231 breast
[26] = test system: MDA-MB-435 melanoma
[27] = test system: MDA-MB-468 breast
[28] = test system: MOLT-4 leukemia
[29] = test system: NCI-H226 lung
[30] = test system: NCI-H23 lung
[31] = test system: NCI-H322M lung
[32] = test system: NCI-H460 NSCLC
[33] = test system: NCI-H522 lung
[34] = test system: NCI/ADR-RES ovarian
[35] = test system: OVCAR-3 ovarian
[36] = test system: OVCAR-4 ovarian
[37] = test system: OVCAR-5 ovarian
[38] = test system: OVCAR-8 ovarian
[39] = test system: PC-3 prostate
[40] = test system: RPMI-8226 leukemia
[41] = test system: RXF 393 renal
[42] = test system: SF-268 CNS
[43] = test system: SF-295 CNS
[44] = test system: SF-539 CNS
[45] = test system: SK-MEL-28 melanoma
[46] = test system: SK-MEL-5 melanoma
[47] = test system: SK-OV-3 ovarian
[48] = test system: SN12C renal
[49] = test system: SNB-19 CNS
[50] = test system: SNB-75 CNS
[51] = test system: SR leukemia
[52] = test system: SW-620 colon
[53] = test system: T-47D breast
[54] = test system: TK-10 renal
[55] = test system: U251 glioblastoma
[56] = test system: UACC-257 melanoma
[57] = test system: UACC-62 melanoma
[58] = test system: UO-31 renal

CS(=O)(=O)c1ccc(Oc2cc(F)cc(C#N)c2)c2c1[C@H](O)[C@H](F)[C@@H]2F
> 100 µM: TGI [1] | TGI [2] | TGI [3] | TGI [4] | TGI [5] | TGI [6] | TGI [7] | TGI [8] | TGI [9] | TGI [10] | TGI [11] | TGI [12] | TGI [13] | TGI [14] | TGI [15] | TGI [16] | TGI [17] | TGI [18] | TGI [19] | TGI [20] | TGI [21] | TGI [22] | TGI [23] | TGI [24] | TGI [25] | TGI [26] | TGI [27] | TGI [28] | TGI [29] | TGI [30] | TGI [31] | TGI [32] | TGI [33] | TGI [34] | TGI [35] | TGI [36] | TGI [37] | TGI [38] | TGI [39] | TGI [40] | TGI [41] | TGI [42] | TGI [43] | TGI [44] | TGI [45] | TGI [46] | TGI [47] | TGI [48] | TGI [49] | TGI [50] | TGI [51] | TGI [52] | TGI [53] | TGI [54] | TGI [55] | TGI [56] | TGI [57] | TGI [58]
inactive: GI50 [1] > 100 µM | GI50 [2] > 100 µM | GI50 [3] > 100 µM | GI50 [4] > 100 µM | GI50 [5] > 100 µM | GI50 [6] > 100 µM | GI50 [7] > 100 µM | GI50 [8] > 100 µM | GI50 [9] > 100 µM | GI50 [10] > 100 µM | GI50 [11] > 100 µM | GI50 [12] > 100 µM | GI50 [13] > 100 µM | GI50 [14] > 100 µM | GI50 [15] > 100 µM | GI50 [16] > 100 µM | GI50 [17] > 100 µM | GI50 [18] > 100 µM | GI50 [19] > 100 µM | GI50 [20] > 100 µM | GI50 [21] > 100 µM | GI50 [22] > 100 µM | GI50 [23] > 100 µM | GI50 [24] > 100 µM | GI50 [25] > 100 µM | GI50 [26] > 100 µM | GI50 [27] > 100 µM | GI50 [28] > 100 µM | GI50 [29] > 100 µM | GI50 [30] > 100 µM | GI50 [31] > 100 µM | GI50 [32] > 100 µM | GI50 [33] > 100 µM | GI50 [34] > 100 µM | GI50 [35] > 100 µM | GI50 [36] > 100 µM | GI50 [37] > 100 µM | GI50 [38] > 100 µM | GI50 [39] > 100 µM | GI50 [40] > 100 µM | GI50 [41] > 100 µM | GI50 [42] > 100 µM | GI50 [43] > 100 µM | GI50 [44] > 100 µM | GI50 [45] > 100 µM | GI50 [46] > 100 µM | GI50 [47] > 100 µM | GI50 [48] > 100 µM | GI50 [49] > 100 µM | GI50 [50] > 100 µM | GI50 [51] > 100 µM | GI50 [52] > 100 µM | GI50 [53] > 100 µM | GI50 [54] > 100 µM | GI50 [55] > 100 µM | GI50 [56] > 100 µM | GI50 [57] > 100 µM | GI50 [58] > 100 µM
